Test system: hemolysin of Aeromonas hydrophila (嗜水气单胞菌 溶血素)
Assay: Quantitative beta-hemolysin assay (5% rabbit red blood cells)
Type: cell-based, Aeromonas hydrophila AH08

O=C(O[C@@H]1Cc2c(O)cc(O)cc2O[C@@H]1c1cc(O)c(O)c(O)c1)c1cc(O)c(O)c(O)c1 [EGCG, 表没食子儿茶素-3-没食子酸酯]
inhibition at 256 µg/mL (Aeromonas hydrophila, Erythrocyte, 256 μg/ml, compared with blank control, read-out: inhibition rate of hemolysin): 28.2%
inhibition of hemolytic activity (in words) (high concentration EGCG): 显著抑制

Reference: patent CN116139126A, “表没食子儿茶素-3-没食子酸酯在制备嗜水气单胞菌的群体感应抑制剂中的应用” (Yueyang Yumeikang Bio Tech Co ltd, priority 2023, dated 2023)
